Measurements published in ChEMBL document CHEMBL6109087, “Design and synthesis of azole derivatives of echinocystic acid as α-glucosidase inhibitors with hypoglycemic activity” (Eur J Med Chem, 2025).
Activity calls are given as the source filed them. The calls are words filed in the database; no cut-off is given here.

Tests used:
[1] = target: Alpha-glucosidase (Saccharomyces cerevisiae S288c) (UniProt P53341+P38158+P07265); test: Inhibition of alpha-glucosidase using 4-Nitrophenyl-[…]-D-glucopyranoside (pNPG) as substrate assessed as inhibition rate at 30 uM relative control; type: protein assay
Alpha-glucosidase [2] = target: T1, Alpha-glucosidase (Saccharomyces cerevisiae S288c, UniProt P53341+P38158+P07265); test: Inhibition of alpha-glucosidase using 4-Nitrophenyl-[…]-D-glucopyranoside (pNPG) as substrate; type: protein assay
[3] = system: alpha-glucosidase (unknown origin); test: Selectivity index, ratio of CC50 for Cytotoxicity against human LO2 cells to IC50 for alpha-glucosidase (unknown origin); type: toxicity, cell-based, L02; conditions: read-out: Selectivity Index
[4] = Cytotoxicity against human LO2 cells assessed as cell viability measured after 24 hrs by MTT assay; type: toxicity, cell-based, L02
Mus musculus = test: Reduction in blood glucose concentration in male C57BL/6J mouse assessed as peak blood glucose and glucose AUC at 100 mg/kg preadministered for 30 mins via gavage followed by treated 2 g/Kg of sucrose and measured up to 120 mins post sucrose challenge by sucrose loading test; type: functional, organism-based; conditions: time 150.0 min
Alpha-glucosidase [5] = target: T1, Alpha-glucosidase; test: Inhibition of alpha-glucosidase; type: protein assay
Alpha-glucosidase [6] = target: T1, Alpha-glucosidase; test: Binding affinity to alpha-glucosidase assessed as inhibition constant; type: protein assay
Alpha-glucosidase [7] = target: T1, Alpha-glucosidase; test: Inhibition of alpha-glucosidase using P-nitro phenyl-alpha-D-glucopyranoside as substrate assessed as substrate hydrolysis; type: protein assay

| inhibition [1] | IC50 (Alpha-glucosidase [2]) | SMILES | other results |
| --- | --- | --- | --- |
| 48.5% | > 30 µM | COc1ccc(-n2cc(CNC(=O)[C@]34CCC(C)(C)C[C@H]3C3=CC[C@@H]5[C@@]6(C)CC[C@H](O)C(C)(C)[C@@H]6CC[C@@]5(C)[C@]3(C)C[C@H]4O)nn2)cc1 | – |
| 6.67% | > 30 µM | COc1cc(-n2cc(CNC(=O)[C@]34CCC(C)(C)C[C@H]3C3=CC[C@@H]5[C@@]6(C)CC[C@H](O)C(C)(C)[C@@H]6CC[C@@]5(C)[C@]3(C)C[C@H]4O)nn2)cc(OC)c1OC | – |
| 51.4% | > 30 µM | COc1ccc(-n2cc(CNC(=O)COC(=O)[C@]34CCC(C)(C)C[C@H]3C3=CC[C@@H]5[C@@]6(C)CC[C@H](O)C(C)(C)[C@@H]6CC[C@@]5(C)[C@]3(C)C[C@H]4O)nn2)cc1 | – |
| 68% | 23.62 µM | CC1(C)CC[C@]2(C(=O)OCC(=O)NCc3cn(-c4ccc(Br)cc4)nn3)[C@H](O)C[C@]3(C)C(=CC[C@@H]4[C@@]5(C)CC[C@H](O)C(C)(C)[C@@H]5CC[C@]43C)[C@@H]2C1 | – |
| 55.9% | 22.72 µM | CC1(C)CC[C@]2(C(=O)NCc3cn(-c4ccccc4)nn3)[C@H](O)C[C@]3(C)C(=CC[C@@H]4[C@@]5(C)CC[C@H](O)C(C)(C)[C@@H]5CC[C@]43C)[C@@H]2C1 | – |
| 47.7% | > 30 µM | CC1(C)CC[C@]2(C(=O)NCc3cn(-c4ccc(F)cc4)nn3)[C@H](O)C[C@]3(C)C(=CC[C@@H]4[C@@]5(C)CC[C@H](O)C(C)(C)[C@@H]5CC[C@]43C)[C@@H]2C1 | – |
| 63% | 21.25 µM | Cc1ccc(-n2cc(CNC(=O)[C@]34CCC(C)(C)C[C@H]3C3=CC[C@@H]5[C@@]6(C)CC[C@H](O)C(C)(C)[C@@H]6CC[C@@]5(C)[C@]3(C)C[C@H]4O)nn2)cc1 | – |
| 59.9% | 21.7 µM | CC1(C)CC[C@]2(C(=O)OCC(=O)NCc3cn(-c4ccccc4)nn3)[C@H](O)C[C@]3(C)C(=CC[C@@H]4[C@@]5(C)CC[C@H](O)C(C)(C)[C@@H]5CC[C@]43C)[C@@H]2C1 | – |
| 61.5% | 18.52 µM | CC1(C)CC[C@]2(C(=O)OCC(=O)NCc3cn(-c4ccc(F)cc4)nn3)[C@H](O)C[C@]3(C)C(=CC[C@@H]4[C@@]5(C)CC[C@H](O)C(C)(C)[C@@H]5CC[C@]43C)[C@@H]2C1 | – |
| 63.3% | 18.18 µM | CC1(C)CC[C@]2(C(=O)OCC(=O)NCc3cn(-c4ccc(Cl)cc4)nn3)[C@H](O)C[C@]3(C)C(=CC[C@@H]4[C@@]5(C)CC[C@H](O)C(C)(C)[C@@H]5CC[C@]43C)[C@@H]2C1 | – |
| 69.2% | 21.19 µM | CC1(C)CC[C@]2(C(=O)NCc3cn(-c4ccc(Cl)cc4)nn3)[C@H](O)C[C@]3(C)C(=CC[C@@H]4[C@@]5(C)CC[C@H](O)C(C)(C)[C@@H]5CC[C@]43C)[C@@H]2C1 | – |

Further lines, the molecule ahead of its results:

| SMILES | inhibition [1] | IC50 (Alpha-glucosidase [2]) | other results |
| --- | --- | --- | --- |
| CC1(C)CC[C@]2(C(=O)O)[C@H](O)C[C@]3(C)C(=CC[C@@H]4[C@@]5(C)CC[C@H](O)C(C)(C)[C@@H]5CC[C@]43C)[C@@H]2C1 | 18.4% | 59.91 µM | selectivity ratio [3]: 0.94; CC50 at 24 h [4]: 56.2 µM; Activity (Mus musculus): Active |
| CC1(C)CC[C@]2(C(=O)OCc3nc(-c4ccc(F)cc4)no3)[C@H](O)C[C@]3(C)C(=CC[C@@H]4[C@@]5(C)CC[C@H](O)C(C)(C)[C@@H]5CC[C@]43C)[C@@H]2C1 | 64.6% | 16.01 µM | – |
| O=C(Cc1cccs1)N[C@@H]1C(=O)N2C(C(=O)O)=C(CSc3nc[nH]n3)CS[C@H]12 [CEFETRIZOLE] | – | – | IC50 (Alpha-glucosidase [5]): 2.1 µM; Ki (Alpha-glucosidase [6]): 0.578 µM |
| CC1(C)CC[C@]2(C(=O)OCc3nnc(-c4ccccc4)o3)[C@H](O)C[C@]3(C)C(=CC[C@@H]4[C@@]5(C)CC[C@H](O)C(C)(C)[C@@H]5CC[C@]43C)[C@@H]2C1 | 57.2% | 19.36 µM | – |
| CC1(C)CC[C@]2(C(=O)OCC(=O)NCc3cn(-c4ccc(Cl)c(Cl)c4)nn3)[C@H](O)C[C@]3(C)C(=CC[C@@H]4[C@@]5(C)CC[C@H](O)C(C)(C)[C@@H]5CC[C@]43C)[C@@H]2C1 | 87.3% | 3.4 µM | selectivity ratio [3]: 58.3; CC50 at 24 h [4]: 198 µM |
| COc1ccc(CC2(Cc3cn(-c4ccc(C)cc4)nn3)C(=O)OC(C)(C)OC2=O)cc1 | – | – | IC50 (Alpha-glucosidase [7]): 4.63 µM |
| CC1(C)CC[C@]2(C(=O)OCCn3ncn(-c4ccc(Cl)c(Cl)c4)c3=O)[C@H](O)C[C@]3(C)C(=CC[C@@H]4[C@@]5(C)CC[C@H](O)C(C)(C)[C@@H]5CC[C@]43C)[C@@H]2C1 | 80.3% | 3.42 µM | selectivity ratio [3]: 19.5; CC50 at 24 h [4]: 66.8 µM |
| CC1(C)CC[C@]2(C(=O)OCc3nnc(-c4ccc(Cl)c(Cl)c4)o3)[C@H](O)C[C@]3(C)C(=CC[C@@H]4[C@@]5(C)CC[C@H](O)C(C)(C)[C@@H]5CC[C@]43C)[C@@H]2C1 | 69.8% | 17.25 µM | – |
| COc1ccc(-c2noc(COC(=O)[C@]34CCC(C)(C)C[C@H]3C3=CC[C@@H]5[C@@]6(C)CC[C@H](O)C(C)(C)[C@@H]6CC[C@@]5(C)[C@]3(C)C[C@H]4O)n2)cc1 | 94.8% | 3.41 µM | selectivity ratio [3]: 11.3; CC50 at 24 h [4]: 38.5 µM |
| COc1ccc(-c2nnc(COC(=O)[C@]34CCC(C)(C)C[C@H]3C3=CC[C@@H]5[C@@]6(C)CC[C@H](O)C(C)(C)[C@@H]6CC[C@@]5(C)[C@]3(C)C[C@H]4O)o2)cc1 | 56.5% | 22.28 µM | – |
| C[C@H]1O[C@H](O[C@H]2[C@H](O)[C@@H](O)[C@@H](O[C@H]3[C@H](O)[C@@H](O)C(O)O[C@@H]3CO)O[C@@H]2CO)[C@H](O)[C@@H](O)[C@@H]1N[C@H]1C=C(CO)[C@@H](O)[C@H](O)[C@H]1O (some centres not stated) | – | – | Activity (Mus musculus): Active |
| CC1(C)CC[C@]2(C(=O)OCc3nc(-c4ccc(Cn5cncn5)cc4)no3)[C@H](O)C[C@]3(C)C(=CC[C@@H]4[C@@]5(C)CC[C@H](O)C(C)(C)[C@@H]5CC[C@]43C)[C@@H]2C1 | 10.5% | > 30 µM | – |
| CC1(C)CC[C@]2(C(=O)OCc3nnc(-c4ccc(Cl)cc4)o3)[C@H](O)C[C@]3(C)C(=CC[C@@H]4[C@@]5(C)CC[C@H](O)C(C)(C)[C@@H]5CC[C@]43C)[C@@H]2C1 | 67.3% | 21.94 µM | – |
| COc1cc(-c2nnc(COC(=O)[C@]34CCC(C)(C)C[C@H]3C3=CC[C@@H]5[C@@]6(C)CC[C@H](O)C(C)(C)[C@@H]6CC[C@@]5(C)[C@]3(C)C[C@H]4O)o2)cc(OC)c1OC | 49.1% | > 30 µM | – |
| CC1(C)CC[C@]2(C(=O)OCc3nc(-c4ccccc4)no3)[C@H](O)C[C@]3(C)C(=CC[C@@H]4[C@@]5(C)CC[C@H](O)C(C)(C)[C@@H]5CC[C@]43C)[C@@H]2C1 | 58.3% | 26.2 µM | – |
| CC1(C)CC[C@]2(C(=O)OCCn3ncn(-c4ccccc4)c3=O)[C@H](O)C[C@]3(C)C(=CC[C@@H]4[C@@]5(C)CC[C@H](O)C(C)(C)[C@@H]5CC[C@]43C)[C@@H]2C1 | 46.1% | > 30 µM | – |
| CC1(C)CC[C@]2(C(=O)OCc3nc(-c4ccc(Cl)c(Cl)c4)no3)[C@H](O)C[C@]3(C)C(=CC[C@@H]4[C@@]5(C)CC[C@H](O)C(C)(C)[C@@H]5CC[C@]43C)[C@@H]2C1 | 36.5% | > 30 µM | – |
| CC1(C)CC[C@]2(C(=O)OCc3nc(-c4ccc(Cl)cc4)no3)[C@H](O)C[C@]3(C)C(=CC[C@@H]4[C@@]5(C)CC[C@H](O)C(C)(C)[C@@H]5CC[C@]43C)[C@@H]2C1 | 85.1% | 4.11 µM | selectivity ratio [3]: 26.4; CC50 at 24 h [4]: 108 µM |
| CC1(C)CC[C@]2(C(=O)OCCn3ncn(-c4ccc(F)cc4)c3=O)[C@H](O)C[C@]3(C)C(=CC[C@@H]4[C@@]5(C)CC[C@H](O)C(C)(C)[C@@H]5CC[C@]43C)[C@@H]2C1 | 56.9% | 29.32 µM | – |
| CC1(C)CC[C@]2(C(=O)OCCn3ncn(-c4ccc(Cl)cc4)c3=O)[C@H](O)C[C@]3(C)C(=CC[C@@H]4[C@@]5(C)CC[C@H](O)C(C)(C)[C@@H]5CC[C@]43C)[C@@H]2C1 | 47.7% | 28.69 µM | – |
| COc1ccc(NC(=O)Cn2cc(COc3cc(O)c4c(=O)c5ccc(OC)cc5oc4c3)nn2)c(OC)c1 | – | – | IC50 (Alpha-glucosidase [7]): 2.06 µM |
